The source of these data is PMC9781958, “Next-Generation Heterocyclic Electrophiles as Small-Molecule Covalent MurA Inhibitors” (Pharmaceuticals, 2022).

Series [1] has as its target T1, E. coli MurA (UDP-N-acetylglucosamine 1-carboxyvinyltransferase, EC:2.5.1.7) (Escherichia coli, UniProt P0A749). The series can be described thus: MurA inhibitory assay (colorimetric malachite green method). Also on record: inferred from IMAC purification with imidazole elution; made in house; host or cells: Escherichia coli NiCo21(DE3). The conditions noted are these: for IC50 [μM] MurA: Figure 1, methylated library, 30 min preincubation; for remaining activity at 100 µM: 0.5 h, read-out: RA% @ 100 μM MurA 30 min preincubation. It is filed as biochemical. The procedure: Expression and purification of E. coli MurA (UDP-N-acetylglucosamine 1-carboxyvinyltransferase, EC:2.5.1.7) was performed according to the known procedure. Briefly, the MurA plasmid was used to transform chemically competent Escherichia coli NiCo21(DE3) (New England Biolabs, Ipswich, MA, USA). The transformant was cultured at 37 °C and 250 rpm in LB broth. Expression was induced by addition of 1 mM IPTG and cultured for an additional 3 h. Cells were harvested by centrifugation (3000× g for 10 min at 4 °C), and cell pellets were stored at −80 °C until purification. Cell pellets were resuspended in buffer 50 mM Tris (pH 8), 150 mM NaCl, and 10 % glycerol and lysed on ice by sonication. Cell debris was removed by centrifugation for 30 min (16,000× g, 4 °C, repeated twice). The lysate was loaded onto a HiTrap 1 mL IMAC HP column (Cytiva, Marlborough, MA, USA). The column was washed with buffer containing 50 mM imidazole with 20 column volumes, and the protein was eluted with buffer containing 250 mM imidazole. The eluted MurA was exchanged into proprietary buffer (50 mM Tris (pH 8), 150 mM NaCl, 10 % glycerol).
The inhibition of the MurA enzyme was monitored using the colorimetric malachite green method in which orthophosphate generated during the reaction is detected. The assay was performed in 96-well microplates with a final volume of 50 μL. The MurA enzyme was preincubated with the substrate UNAG (UDP-N-acetylglucosamine, Sigma, St. Louis, MO, USA) and compound for 30 min at 37 °C. […] After incubation for 15 min at 37 °C, the enzyme reaction was ended by adding Biomol® reagent (100 µL), and the absorbance was measured at 650 nm after 5 min using a microplate reader (Synergy H4, BioTek Instruments, Inc., Winooski, VT, USA). All of the experiments were run in duplicate. […] IC50 values were determined by measuring residual activities at 7 different compound concentrations and calculated using GraphPad Prism (GraphPad Software, San Diego, CA, USA).

A short description of series [2]: NMR-based single-point GSH reactivity assay. The note with it: pH 7.4, 1H NMR. It is filed as physicochemical. The procedure: For the NMR assay, a 500 mM D2O stock solution was first prepared for each fragment along with an 800 mM D2O stock solution of GSH. Thereafter, a 5 mM electrophilic standard solution was prepared by adding 20 μL of stock solution to a 2 mL 100 mM potassium hydrogen phosphate/sodium hydrogen phosphate buffer solution (pH 7.4). A total of 0.5 mL of this electrophilic standard solution was placed in an NMR tube, and then the ^1H NMR was recorded. The peak values obtained during the measurement were considered the zero-point measurement or reference peaks of the reactivity study. For the reactivity measurement, 20 μL of the fragment stock solution was added to 1980 μL phosphate buffer solution (pH 7.4) along with 20 μL of GSH stock solution (final concentration = […] GSH and 5 mM fragment). The contents were vortexed until homogenization and were transferred to an NMR tube. The resulting mixture was analyzed by ^1H NMR measurements after 15 and 30 min, and 4 and 24 h. The AUC (area under the curve) values were determined via integration of the corresponding peaks in the NMR spectra.

Series [3] addresses T1, E. coli MurA (UDP-N-acetylglucosamine 1-carboxyvinyltransferase, EC:2.5.1.7). The conditions noted are these: read-out: MurA IC50 (µM) Non-Methylated; first-generation non-methylated heterocycles; cited from earlier work.
Series [4] concerns the target MurA (Escherichia coli, UniProt P0A749). The series is described as follows: MurA covalent labelling, intact MS. It is filed as binding, E. coli. The note with it: 5 mM fragment, 37 °C, 60 min (Figure S1). The protocol: The covalent labelling procedure was conducted as described earlier with slight modifications. First, 42 μM stock solution of MurA in 20 mM HEPES at pH 7.2–7.4 with 1 mM DTT (dithiothreitol, Sigma) was filtered through a G25 desalting column, and the medium was changed to 50 mM Tris with 0.005% Triton X-100 at pH 8.0. For the activation of the enzyme, 1 mg UNAG was added as a solid to reach 40 mM concentration, and the mixture was incubated at 37 °C for 30 min. Fragments were added from a 100 mM DMSO stock diluted in the labelling solution to 5 mM. The incubation was continued at 37 °C for an additional 60 min. After the labelling, the mixture was purified on a G25 desalting column.
The molecular weights of the conjugates were identified using a Triple-TOF 5600+ hybrid Q-TOF LC/MS/MS system (Sciex, Singapore, Woodlands) equipped with a Duo Spray Ion Source coupled with a Shimadzu Prominence LC20 UFLC (Shimadzu, Kyoto, Japan) system consisting of a binary pump, an autosampler, and a thermostated column compartment. Data acquisition and processing were performed using Analyst TF software version 1.7.1 (AB Sciex Instruments, Redwood City, CA, USA). Chromatographic separation was achieved on a Thermo BetaBasic C8 (50 mm × 2.1 mm, 3 μm, 150 Å) HPLC column. […]

Setting [5] is: Table 1, methylated heterocycles, read-out: MurA IC50 (µM) Methylated.

SMILES strings stand for the structures. Like-named read-outs stand apart in the source and are kept apart here.

The term IC50 denotes the midpoint of a concentration-inhibition curve.

T1 sequence (P0A749 whole entry): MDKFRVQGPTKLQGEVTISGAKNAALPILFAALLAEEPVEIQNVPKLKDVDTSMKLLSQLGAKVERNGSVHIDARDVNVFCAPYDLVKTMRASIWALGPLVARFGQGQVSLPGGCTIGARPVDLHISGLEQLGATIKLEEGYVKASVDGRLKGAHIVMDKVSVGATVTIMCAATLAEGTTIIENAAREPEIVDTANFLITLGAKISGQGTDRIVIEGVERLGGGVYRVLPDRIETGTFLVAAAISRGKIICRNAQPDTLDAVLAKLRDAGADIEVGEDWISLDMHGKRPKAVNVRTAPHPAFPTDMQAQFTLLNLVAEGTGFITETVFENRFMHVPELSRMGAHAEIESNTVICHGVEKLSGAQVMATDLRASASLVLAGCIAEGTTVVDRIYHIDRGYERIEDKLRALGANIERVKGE
Chain of MurA (P0A749 whole entry, the tested form may be a part): as the sequence (P0A749 whole entry) above

In the case of `C[n+]1ccccc1I` [A3+], in series [1], the concentration for half-maximal inhibition (IC50) was found to be 15.5 µM.
With `C[n+]1cccnc1I` [D3+], the “IC50 [μM] MurA” value in series [1] is “single-digit micromolar”. In series [1] (setting [5]), the half-inhibitory concentration (IC50) came to 2.99 µM. In addition, the “fold increase in MurA inhibitory potency of methylated versus non-methylated pair” value in series [1] (from IC50 values of Table 1) was found to be 100 fold.
As for `C#Cc1nccc[n+]1C` [D6+], in series [1], the remaining activity at 100 µM turned out to be 6.7%. Further, the “Single point GSH reactivity (% conversion in 15 min, 16 equiv. GSH)” value in series [2] stood at 100%.
As for `C[n+]1ccsc1Br` [R2+], in series [1], the remaining activity at 100 µM amounted to 42.8%.
As for `C[C@@H]1O[C@@H]1P(=O)(O)O` [fosfomycin], the 50% inhibitory concentration (IC50) in series [3] was 0.25 ± 0.01 µM.
Consider `C[n+]1cccnc1Br` [D2+], for which, in series [1], the remaining activity at 100 µM turned out to be 98.2%.
Take `C[n+]1ccc(I)cc1` [C3+]: the “IC50 [μM] MurA” value in series [1] is “single-digit micromolar”. For the same compound, the half-inhibitory concentration (IC50) in series [1] (setting [5]) stood at 4.5 µM. Also, in series [4], the “covalent labelling of MurA by intact MS” value is “single and double labelling on MurA”.
As to `C[n+]1ccccc1Cl` [A1+], the concentration for half-maximal inhibition (IC50) in series [1] came to 51.6 µM.
In the case of `Cn1cc[n+](C)c1I` [H3+], the remaining activity at 100 µM in series [1] came to 10.4%. The IC50 in series [1] (setting [5]) turned out to be 10.2 µM. In addition, the “Single point GSH reactivity (% conversion in 15 min, 16 equiv. GSH)” value in series [2] turned out to be 100%.
For `C[n+]1ccoc1I` [N3+], the remaining activity at 100 µM in series [1] stood at 1.2%. The “Single point GSH reactivity (% conversion in 15 min, 16 equiv. GSH)” value in series [2] is recorded as 100%.
`C[n+]1cccnc1Cl` [D1+]: the remaining activity at 100 µM in series [1] came to 99.1%.
In the case of `C#Cc1cnc[n+](C)c1` [F6+], the remaining activity at 100 µM in series [1] turned out to be 77.8%.
For `C#Cc1cc[n+](C)cc1` [C6+], the IC50 in series [1] (setting [5]) turned out to be 64.7 µM.
Take `C#Cc1cccc[n+]1C` [A6+]: the concentration for half-maximal inhibition (IC50) in series [1] came to 50 µM.
